Assays:
[1] = molecular target: T1, Protein-S-isoprenylcysteine O-methyltransferase (Saccharomyces cerevisiae S288c, UniProt P32584); test: Inhibitory concentration against isoprenyl-cysteine carboxyl methyltransferase
T1 sequence (P32584 whole entry): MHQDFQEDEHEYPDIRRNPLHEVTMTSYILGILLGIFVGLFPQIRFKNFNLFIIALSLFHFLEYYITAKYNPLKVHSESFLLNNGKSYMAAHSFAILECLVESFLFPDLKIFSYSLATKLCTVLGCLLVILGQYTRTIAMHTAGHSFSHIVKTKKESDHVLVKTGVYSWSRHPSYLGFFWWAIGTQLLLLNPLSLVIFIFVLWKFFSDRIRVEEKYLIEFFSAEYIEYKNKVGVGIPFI

[2] = molecular target: T1, Protein-S-isoprenylcysteine O-methyltransferase; test: Inhibitory concentration against isoprenyl-cysteine carboxyl methyltransferase by Casey method; Range 7 - 14 uM

SMILES | Ki [1] [µM] | IC50 [2] [µM] | IC50 [1] [µM]
CC(=O)NC(C[S+]([O-])C/C=C(\C)CC/C=C(\C)CC/C=C(\C)CCC=C(C)C)C(=O)O (stereo not given) | 13.2 |  | 
CC(=O)N[C@@H](CSC/C=C(\CC=C(C)C)CC/C=C(\C)CCC=C(C)C)C(=O)O | 17.1 | 14 | 44
CC(C)=CCC/C(C)=C/CC/C(C)=C/CSCC(=O)O [FARNESYLTHIOACETIC ACID] | 4.6 |  | 

From ChEMBL document CHEMBL1143650, “Synthesis of desthio prenylcysteine analogs: sulfur is important for biological activity” (Bioorg Med Chem Lett, 2005)
